In the supplement of paper PMC10307832:

What was measured:
Assay in all cases: relative viability (nuclei count vs DMSO), 5 days (fraction); higher = more cells survive
Pictilisib + Trametinib = compound: CS(=O)(=O)N1CCN(Cc2cc3nc(-c4cccc5[nH]ncc45)nc(N4CCOCC4)c3s2)CC1 [Pictilisib] + CC(=O)Nc1cccc(-n2c(=O)n(C3CC3)c(=O)c3c(Nc4ccc(I)cc4F)n(C)c(=O)c(C)c32)c1 [Trametinib] (partner 0.02 µM)
Summary of the method: (§1)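 Relative viability was taken as the ratio of nuclei in treated wells to nuclei in vehicle wells. Lung cancer cell lines in 1536-well plates received compounds by pin tool one day after seeding, either one drug alone or a fixed anchor-drug dose plus five library-drug doses (not always all listed) in √10 steps. Nuclei were counted on 4× images after 5 days of treatment, and values are medians of duplicate plates.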

Pictilisib + Olaparib = compound: CS(=O)(=O)N1CCN(Cc2cc3nc(-c4cccc5[nH]ncc45)nc(N4CCOCC4)c3s2)CC1 [Pictilisib] + O=C(c1cc(Cc2n[nH]c(=O)c3ccccc23)ccc1F)N1CCN(C(=O)C2CC2)CC1 [Olaparib] (partner 8 µM)
Summary of the method: as §1

MK-2206 + Palbociclib = compound: NC1(c2ccc(-c3nc4ccn5c(=O)[nH]nc5c4cc3-c3ccccc3)cc2)CCC1 [MK-2206] + CC(=O)c1c(C)c2cnc(Nc3ccc(N4CCNCC4)cn3)nc2n(C2CCCC2)c1=O [Palbociclib] (partner 0.5 µM)
Summary of the method: as §1

MK-2206 + Linsitinib = compound: NC1(c2ccc(-c3nc4ccn5c(=O)[nH]nc5c4cc3-c3ccccc3)cc2)CCC1 [MK-2206] + C[C@]1(O)C[C@@H](c2nc(-c3ccc4ccc(-c5ccccc5)nc4c3)c3c(N)nccn32)C1 [Linsitinib] (partner 1 µM)
Summary of the method: as §1

MK-2206 + Decitabine = compound: NC1(c2ccc(-c3nc4ccn5c(=O)[nH]nc5c4cc3-c3ccccc3)cc2)CCC1 [MK-2206] + Nc1ncn([C@H]2C[C@H](O)[C@@H](CO)O2)c(=O)n1 [Decitabine] (partner 2 µM)
Summary of the method: as §1

Cell Line	relative viability (Pictilisib + Trametinib; first compound 0.02 µM)	relative viability (Pictilisib + Trametinib; first compound 0.06325 µM)	relative viability (Pictilisib + Trametinib; first compound 0.6325 µM)	relative viability (Pictilisib + Trametinib; first compound 2 µM)	relative viability (Pictilisib + Olaparib; first compound 0.02 µM)	relative viability (Pictilisib + Olaparib; first compound 0.06325 µM)	relative viability (Pictilisib + Olaparib; first compound 0.6325 µM)	relative viability (Pictilisib + Olaparib; first compound 2 µM)	relative viability (MK-2206 + Palbociclib; first compound 0.01 µM)	relative viability (MK-2206 + Palbociclib; first compound 0.03162 µM)	relative viability (MK-2206 + Palbociclib; first compound 0.3162 µM)	relative viability (MK-2206 + Palbociclib; first compound 1 µM)	relative viability (MK-2206 + Linsitinib; first compound 0.01 µM)	relative viability (MK-2206 + Linsitinib; first compound 0.03162 µM)	relative viability (MK-2206 + Linsitinib; first compound 0.3162 µM)	relative viability (MK-2206 + Linsitinib; first compound 1 µM)	relative viability (MK-2206 + Decitabine; first compound 0.01 µM)	relative viability (MK-2206 + Decitabine; first compound 0.03162 µM)	relative viability (MK-2206 + Decitabine; first compound 0.3162 µM)	relative viability (MK-2206 + Decitabine; first compound 1 µM)
NCI-H322M	0.516	0.529	0.407	0.394	0.76	0.838	0.756	0.525	0.51	0.469	0.519	0.527	0.912	0.949	0.869	0.942	0.677	0.735	0.787	0.624
BEN	1.02	0.953	0.962	0.636	1.03	1.11	1.02	0.978	0.493	0.516	0.522	0.498	0.924	1.01	1.04	1.03	0.909	0.673	0.679	0.643
NCI-H2009	0.36	0.277	0.167	0.116	0.743	0.634	0.592	0.422	0.139	0.25	0.179	0.177	1.15	1.16	1.16	1.02	0.379	0.376	0.432	0.365
LC-2-ad	0.892	0.945	0.73	0.629	0.745	0.758	0.788	0.656	0.488	0.523	0.51	0.499	0.813	0.843	0.909	0.781	0.748	0.79	0.859	0.881
NCI-H1437	0.472	0.418	0.289	0.194	0.635	0.67	0.71	0.546	0.304	0.332	0.336	0.286	0.99	1.08	0.948	0.951	0.603	0.559	0.562	0.521
NCI-H3122	0.201	0.202	0.161	0.122	0.603	0.659	0.595	0.329	0.187	0.179	0.201	0.193	0.942	1.07	0.927	0.91	0.38	0.416	0.396	0.426
NCI-H727	0.409	0.367	0.344	0.331	0.796	0.801	0.72	0.548	0.775	0.658	0.638	0.625	0.308	0.313	0.244	0.27	0.959	0.833	0.884	0.755
NCI-H1734	0.692	0.717	0.499	0.315	0.582	0.581	0.477	0.215	0.238	0.369	0.28	0.264	0.816	0.934	0.632	0.584	0.527	0.516	0.469	0.447
HCC-15	0.359	0.334	0.237	0.178	0.758	0.772	0.638	0.504	0.695	0.792	0.662	0.653	0.92	0.897	0.846	0.852	0.63	0.774	0.549	0.353
NCI-H2405	0.719	0.515	0.355	0.254	0.871	0.867	0.735	0.422	0.512	0.534	0.532	0.481	0.878	1.09	0.878	0.71	0.766	0.788	0.72	0.74
NCI-H1993	0.543	0.469	0.523	0.488	0.964	0.94	0.763	0.388	0.638	0.74	0.545	0.471	0.681	0.811	0.704	0.71	0.533	0.585	0.516	0.491
NCI-H460	0.157	0.215	0.0736	0.0266	0.425	0.436	0.395	0.173	0.137	0.224	0.142	0.0552	0.733	0.801	0.325	0.229	0.491	0.506	0.513	0.419
NCI-H1651	0.753	0.825	0.7	0.656	0.18	0.187	0.21	0.191	0.506	0.536	0.486	0.482	0.906	0.915	0.874	0.937	0.592	0.652	0.637	0.432
NCI-H1975	0.326	0.369	0.194	0.142	0.764	0.818	0.523	0.248	0.604	0.529	0.49	0.168	1.02	0.81	0.679	0.72	0.387	0.346	0.36	0.323
NCI-H2126	0.532	0.531	0.378	0.278	0.911	0.894	0.713	0.496	0.372	0.358	0.357	0.335	0.742	0.634	0.63	0.686	0.575	0.528	0.526	0.574
201T	0.737	0.686	0.659	0.585	0.844	0.815	0.811	0.604	0.356	0.344	0.342	0.332	1.05	0.941	1.03	1.03	0.817	0.892	0.882	0.842
